Data: patent US8642070B2, “Feed additive composition for ruminants, and feed containing the same, and method of fabricating such feed additive composition for ruminants” (Bio Science Co., Ltd., priority 2004, dated 2014)

Experiment: Stability of the biologically active substance at the melting temperature of the spray melt blending liquid
Assay type: physicochemical
Details: for Mean Content (%): liquid agitated 1 hour before injection
Experimental: Next, stability of the biologically active substance was studied in order to determine optimum temperature for the spray melt blending liquid used in the granulation through injection. […] However, when kept warmed below 75° C., the content remains high. Based on this fact, in the case of a rumen bypass product with a biologically active substance, employing a thermally vulnerable vitamins such as a calcium pantothenate, such vitamins can be contained in the preparation without suffering from any damage when granulation through injection is carried out, limiting the temperature of spray melt blending liquid to less than 75° C.

Row | Mean Content (%) (Melting Temperature 60 °C) | Mean Content (%) (Melting Temperature 65 °C) | Mean Content (%) (Melting Temperature 70 °C) | Mean Content (%) (Melting Temperature 75 °C) | Mean Content (%) (Melting Temperature 80 °C) | content estimated when kept warmed above 90° C. (kept warmed above 90° C., extrapolated from Table 4) | Compound
1 | 100.5 | 100.3 | 103.6 | 104.2 | 109.6 |  | CSCC[C@H](N)C(=O)O [Methionine]
2 | 99.5 | 98.2 | 100.3 | 101.2 | 102.0 |  | O=C(O)c1cccnc1 [Nicotinic Acid]
3 | 98.6 | 96.9 | 97.1 | 94.5 | 71.5 | below 50% | Calcium Pantothenate
